Test results reported in US11332443B2, “Derivatives of halo quinabactin” (THE REGENTS OF THE UNIVERSITY OF CALIFORNIA, priority 2015, dated 2022).

What was measured:
Format in all cases: biochemical
PYL1-HAB1 = molecular target: T1, PYL1-HAB1 (Arabidopsis thaliana, UniProt Q8VZS8); experiment: PP2C activity assay, PYL1-HAB1 inhibition; conditions: 200 nM test compound, 100 nM HAB1 PP2C, 200 nM receptor; read-out: % Inhibition of PYR/PYL-HAB1 at 200 nM: PYL1
T1 construct: 6xHis (N); made in house; host or cells: E. coli BL21[DE3]pLysS (stated for GST-HAB1)
T1 sequence (Q8VZS8 1-221): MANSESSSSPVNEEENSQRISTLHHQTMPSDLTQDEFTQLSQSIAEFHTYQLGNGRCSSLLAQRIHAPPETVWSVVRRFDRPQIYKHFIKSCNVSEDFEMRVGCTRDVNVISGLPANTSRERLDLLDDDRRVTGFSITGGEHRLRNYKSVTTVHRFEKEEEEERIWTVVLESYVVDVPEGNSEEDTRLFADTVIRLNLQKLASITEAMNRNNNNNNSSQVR
T1 sequence (Q9CAJ0 23-511 partner): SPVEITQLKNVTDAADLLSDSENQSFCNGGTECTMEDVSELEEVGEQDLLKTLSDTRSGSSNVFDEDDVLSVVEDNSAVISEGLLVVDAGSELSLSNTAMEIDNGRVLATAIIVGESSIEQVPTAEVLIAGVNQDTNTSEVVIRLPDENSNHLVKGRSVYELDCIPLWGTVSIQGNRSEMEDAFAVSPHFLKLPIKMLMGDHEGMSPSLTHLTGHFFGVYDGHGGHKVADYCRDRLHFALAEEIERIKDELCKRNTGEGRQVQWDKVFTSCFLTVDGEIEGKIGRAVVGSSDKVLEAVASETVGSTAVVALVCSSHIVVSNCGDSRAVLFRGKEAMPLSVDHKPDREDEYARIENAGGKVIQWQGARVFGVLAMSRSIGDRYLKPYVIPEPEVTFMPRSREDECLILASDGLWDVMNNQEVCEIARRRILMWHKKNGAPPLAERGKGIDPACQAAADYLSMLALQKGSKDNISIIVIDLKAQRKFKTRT
Text: (§1) The protein HAB1, a type 2 protein phosphatase (PP2C), is inhibited by PYR/PYL proteins in dependence of abscisic acid or other agonists. The potency of an agonist correlates with the level of inhibition of the PP2C, and therefore the IC50 (receptor-HAB1) can be used to compare the relative activity of different chemical analogues. Since inhibition of PP2C correlates to inhibition of seed-germination and increase in plant water-use efficiency, it serves as a powerful tool to quantify biological potential of a chemical acting as an analogue of abscisic acid.
(§2) HAB1 and PYL proteins were expressed and purified as described in Park et al. ((2009) Science 324(5930):1068-1071), with minor modifications. GST-HAB1 was produced by expression in BL21[DE3]pLysS host cells with an expression clone containing the HAB1 cDNA cloned into pGex-2T. Transformed E. coli cells were pre-cultured overnight, transferred to LB medium and cultured at 30° C. to culture A600 of ˜0.5 OD units. The culture was then cooled on ice and MnCl2 added to 4 mM and IPTG added to 0.3 mM. After 16 hours incubation at 15° C., cells were harvested and recombinant proteins were purified on glutathione agarose as described in Park et al. To obtain 6×His-PYL receptor fusion proteins, we used expression constructs previously described by Okamoto et al. 2013, (PNAS 110(29): 12132-12137).
(§3) PP2C activity assays using recombinant receptors and PP2Cs were carried out as follows: purified proteins were pre-incubated in 160 μl assay buffer containing (100 mM Tris-HCl-pH7.9, 100 mM NaCl, 3 μg bovine serum albumin and 0.1% 2-mercaptoethanol), 1 mM MnCl2 with carrier solvent (DMSO), quinabactin or quinabactin analogs (compounds of the present invention) for 30 minutes at room temperature. Reactions were started by adding 40 μL of a reaction solution containing 25 mM 4-nitrophenyl phosphate in assay buffer, after which absorbance measurements were immediately collected (405 nm) using a Wallac plate reader. Reactions contained 100 nM HAB1 PP2C and 200 nM receptor and 200 nM test compound. Inhibition is indicated by reduced PP2C activity, which is expressed as a percentage of the control PP2C activity values that were obtained from assays containing carrier solvent instead but no test compound.

PYR1-HAB1 = molecular target: T2, PYR1-HAB1 (Arabidopsis thaliana, UniProt O49686); experiment: PP2C activity assay, PYR1-HAB1 inhibition; conditions: for activity at 0.2 µM: 200 nM test compound, 100 nM HAB1 PP2C, 200 nM receptor, read-out: % Inhibition of PYR/PYL-HAB1 at 200 nM: PYR1; for IC50: dose response in triplicate, non-linear regression
T2 construct: 6xHis (N); made in house; host or cells: E. coli BL21[DE3]pLysS (stated for GST-HAB1)
T2 sequence (O49686 1-191): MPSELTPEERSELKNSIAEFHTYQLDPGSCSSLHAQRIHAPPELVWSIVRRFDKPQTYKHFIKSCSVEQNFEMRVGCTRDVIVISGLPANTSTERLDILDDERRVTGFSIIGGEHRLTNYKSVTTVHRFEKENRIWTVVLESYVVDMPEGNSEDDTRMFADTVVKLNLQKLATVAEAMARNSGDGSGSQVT
T2 sequence (Q9CAJ0 23-511 partner): T1 sequence (Q9CAJ0 23-511 partner)
Text: as §1, §2
as §3, with “Reactions contained 100 nM HAB1 PP2C and 200 nM receptor and 200 nM test compound.” left out

PYL2-HAB1 = molecular target: T3, PYL2-HAB1 (Arabidopsis thaliana, UniProt O80992); experiment: PP2C activity assay, PYL2-HAB1 inhibition; conditions: for percent inhibition at 0.2 µM: 200 nM test compound, 100 nM HAB1 PP2C, 200 nM receptor, read-out: % Inhibition of PYR/PYL-HAB1 at 200 nM: PYL2; for IC50: dose response in triplicate, non-linear regression
T3 construct: 6xHis (N); made in house; host or cells: E. coli BL21[DE3]pLysS (stated for GST-HAB1)
T3 sequence (O80992 1-190): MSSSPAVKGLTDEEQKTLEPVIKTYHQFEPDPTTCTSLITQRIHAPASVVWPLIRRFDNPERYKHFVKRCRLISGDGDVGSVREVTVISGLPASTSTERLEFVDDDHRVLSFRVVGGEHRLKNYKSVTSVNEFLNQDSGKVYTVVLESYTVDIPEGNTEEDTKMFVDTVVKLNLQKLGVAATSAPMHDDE
T3 sequence (Q9CAJ0 23-511 partner): T1 sequence (Q9CAJ0 23-511 partner)
Text: as §1, §2
as §3, with “Reactions contained 100 nM HAB1 PP2C and 200 nM receptor and 200 nM test compound.” left out

Compound	activity at 0.2 µM (PYL1-HAB1)	activity at 0.2 µM (PYR1-HAB1)	IC50 (PYR1-HAB1)	percent inhibition at 0.2 µM (PYL2-HAB1)	IC50 (PYL2-HAB1)
CCCN1C(=O)CCc2cc(NS(=O)(=O)Cc3ccc(C)cc3)cc(F)c21 [HQ1]	11.8%	14.7%	37.5 nM	28%	42 nM
CCCN1C(=O)CCc2cc(NS(=O)(=O)Cc3ccc(C)cc3)cc(Cl)c21 [HQ2]	20.3%	37.9%	47.7 nM	38.9%	74 nM
C=CCN1C(=O)CCc2cc(NS(=O)(=O)Cc3ccc(C)cc3)cc(F)c21 [HQ28]			62.3 nM		401 nM
CCN1C(=O)CCc2cc(NS(=O)(=O)Cc3ccc(C)cc3)cc(F)c21 [HQ29]			17.2 nM		83 nM
CCN1C(=O)CC(C)c2cc(NS(=O)(=O)Cc3ccc(C)cc3)cc(F)c21 (stereo not shown) [HQ30, N-(1-ethyl-8-fluoro-4-methyl-2-oxo-3,4-dihydroquinolin-6-yl)-1-(p-tolyl)methanesulfonamide]			39.6 nM		11 nM
C=CCN1C(=O)CC(C)c2cc(NS(=O)(=O)Cc3ccc(C)cc3)cc(F)c21 (stereo not shown) [HQ31]			164 nM		52 nM
Cc1ccc(CS(=O)(=O)Nc2cc(F)c3c(c2)C(C)CC(=O)N3C(C)C)cc1 (stereo not shown) [HQ32]			408 nM		40 nM
C=CCN1C(=O)CC(C)c2cc(NS(=O)(=O)Cc3ccc(CC)cc3)cc(F)c21 (stereo not shown) [HQ33]			204 nM		61 nM
CCc1ccc(CS(=O)(=O)Nc2cc(F)c3c(c2)C(C)CC(=O)N3C(C)C)cc1 (stereo not shown) [HQ34]			462 nM		26 nM
CCc1ccc(CS(=O)(=O)Nc2cc(F)c3c(c2)C(C)CC(=O)N3CC)cc1 (stereo not shown) [HQ35]			37 nM		12 nM
C=CCN1C(=O)CC(C)c2cc(NS(=O)(=O)Cc3ccc(COC)cc3)cc(F)c21 (stereo not shown) [HQ36]			126 nM		32 nM
COCc1ccc(CS(=O)(=O)Nc2cc(F)c3c(c2)C(C)CC(=O)N3C(C)C)cc1 (stereo not shown) [HQ37]			227 nM		33 nM
CCN1C(=O)CC(C)c2cc(NS(=O)(=O)Cc3ccc(COC)cc3)cc(F)c21 (stereo not shown) [HQ38]			103 nM		26 nM
Cc1ccc(CS(=O)(=O)Nc2cc(F)c3c(c2)C(C)CC(=O)N3C2CC2)cc1 (stereo not shown) [HQ39]			1260 nM		77 nM
CCCN1C(=O)CCc2cc(NS(=O)(=O)Cc3ccc(C)cc3)cc(Br)c21 [HQ40]			165 nM		239 nM
CCCN1C(=O)CCc2cc(NS(=O)(=O)Cc3ccc(C)cc3)cc(C#N)c21 [HQ41]			967 nM		1450 nM

Compound	activity at 0.2 µM (PYL1-HAB1)	activity at 0.2 µM (PYR1-HAB1)	IC50 (PYR1-HAB1)	percent inhibition at 0.2 µM (PYL2-HAB1)	IC50 (PYL2-HAB1)
CCN1C(=O)CC(C)c2cc(NS(=O)(=O)Cc3ccc(C#N)cc3F)cc(F)c21 (stereo not shown) [HQ42]			589 nM		247 nM
CCN1C(=O)CC(C)c2cc(NS(=O)(=O)Cc3ccc(Cl)cc3Cl)cc(F)c21 (stereo not shown) [HQ43]			> 10000 nM		2010 nM
CCN1C(=O)CC(C)c2cc(NS(=O)(=O)Cc3ccc(C(F)(F)F)cc3)cc(F)c21 (stereo not shown) [HQ44]			2370 nM		250 nM
CCN1C(=O)CC(C)c2cc(NS(=O)(=O)c3ccccc3)cc(F)c21 (stereo not shown) [HQ45]			> 10000 nM		7730 nM
CCCN1C(=O)CCc2c1ccc(NS(=O)(=O)Cc1ccc(C)cc1)c2F [HQ46]			694 nM		1460 nM
CCCN1C(=O)CCc2cc(NS(=O)(=O)Cc3ccc(C)cc3)c(F)cc21 [HQ47, N-(7-fluoro-2-oxo-1-propyl-3,4-dihydroquinolin-6-yl)-1-(p-tolyl)methanesulfonamide]			172 nM		182 nM
CCN1C(=O)CC(C)c2cc(NS(=O)(=O)Cc3ccc(C)cc3F)cc(F)c21 (stereo not shown) [HQ48]			56 nM		23 nM
CCN1C(=O)CC(C)c2cc(NS(=O)(=O)Cc3ccc(C#N)cc3)cc(F)c21 (stereo not shown) [HQ49]			405 nM		112 nM
CCN1C(=O)CC(C)c2cc(NS(=O)(=O)Cc3ccc(C)cc3Br)cc(F)c21 (stereo not shown) [HQ50]			> 10000 nM		4470 nM
CCN1C(=O)CC(C)c2cc(NS(=O)(=O)Cc3ccc(C)cc3C)cc(F)c21 (stereo not shown) [HQ51]			> 10000 nM		930 nM
CCN1C(=O)CC(C)c2cc(NS(=O)(=O)Cc3ccc(C)c(F)c3)cc(F)c21 (stereo not shown) [HQ52]			444 nM		46 nM
CCN1C(=O)CC(C)c2cc(NS(=O)(=O)Cc3ccc(C)cn3)cc(F)c21 (stereo not shown) [HQ53]			153 nM		160 nM
CCN1C(=O)CC(C)c2cc(NS(=O)(=O)Cc3ccc(Cl)cn3)cc(F)c21 (stereo not shown) [HQ54]			512 nM		234 nM
CCN1C(=O)CC(C)c2cc(NS(=O)(=O)Cc3ccc(C)nc3)cc(F)c21 (stereo not shown) [HQ55]			> 10000 nM		1600 nM
CCN1C(=O)CC(C)c2cc(NS(=O)(=O)Cc3ccc(Cl)nc3)cc(F)c21 (stereo not shown) [HQ56]			1250 nM		486 nM
CCN1C(=O)CC(C)c2cc(NS(=O)(=O)Cc3ccc(Cl)s3)cc(F)c21 (stereo not shown) [HQ57]			953 nM		94 nM
